Drawing on ChEMBL document CHEMBL1130542, “Design and synthesis of an -mannosyl terpenoid as selective inhibitor of P-selectin” (Bioorg Med Chem Lett, 1997), this text covers Activity and IC50 for two compounds.

Calls of active or inactive are those of the source. The calls are words filed in the database; no cut-off is given here.

Test [1] deals with T1, L-selectin (Homo sapiens) (UniProt P14151).
T1 sequence (whole entry): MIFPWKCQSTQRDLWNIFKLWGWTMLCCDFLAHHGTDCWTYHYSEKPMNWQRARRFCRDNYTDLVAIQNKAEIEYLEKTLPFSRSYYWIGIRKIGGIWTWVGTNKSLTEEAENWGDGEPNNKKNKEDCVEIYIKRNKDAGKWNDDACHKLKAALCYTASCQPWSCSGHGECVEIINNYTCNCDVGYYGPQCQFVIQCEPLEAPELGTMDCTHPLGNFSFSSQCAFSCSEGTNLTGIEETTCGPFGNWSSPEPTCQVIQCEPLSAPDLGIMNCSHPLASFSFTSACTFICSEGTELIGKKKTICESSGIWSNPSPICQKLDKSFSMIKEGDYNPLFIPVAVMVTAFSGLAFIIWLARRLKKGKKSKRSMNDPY
As to the kind of experiment: Inhibitory activity against L-selectin was determined; IA=Inactive.

Another test concerns the target T2, P-selectin (Homo sapiens, UniProt P16109).
T2 sequence (P16109 whole entry): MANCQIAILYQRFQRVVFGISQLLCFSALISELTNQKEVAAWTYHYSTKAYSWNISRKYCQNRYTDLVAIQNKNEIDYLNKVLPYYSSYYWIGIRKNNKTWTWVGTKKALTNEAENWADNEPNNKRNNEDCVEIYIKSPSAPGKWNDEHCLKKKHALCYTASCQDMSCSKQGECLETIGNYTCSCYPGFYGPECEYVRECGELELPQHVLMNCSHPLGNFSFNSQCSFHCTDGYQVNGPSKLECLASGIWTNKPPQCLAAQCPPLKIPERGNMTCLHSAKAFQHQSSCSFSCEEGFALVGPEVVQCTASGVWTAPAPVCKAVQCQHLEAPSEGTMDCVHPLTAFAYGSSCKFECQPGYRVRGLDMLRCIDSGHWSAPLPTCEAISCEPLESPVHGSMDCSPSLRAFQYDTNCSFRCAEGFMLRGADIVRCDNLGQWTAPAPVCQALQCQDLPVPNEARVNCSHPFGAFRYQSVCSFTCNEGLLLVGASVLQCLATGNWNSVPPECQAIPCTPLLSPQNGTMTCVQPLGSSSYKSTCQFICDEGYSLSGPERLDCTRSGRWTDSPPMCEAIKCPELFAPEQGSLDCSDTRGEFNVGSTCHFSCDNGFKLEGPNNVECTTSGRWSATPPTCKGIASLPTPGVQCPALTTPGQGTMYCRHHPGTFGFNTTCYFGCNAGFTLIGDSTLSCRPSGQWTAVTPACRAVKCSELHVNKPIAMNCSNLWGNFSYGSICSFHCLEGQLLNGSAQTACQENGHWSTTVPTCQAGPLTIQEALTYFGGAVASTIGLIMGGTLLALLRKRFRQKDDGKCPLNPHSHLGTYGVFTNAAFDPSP
As to the kind of experiment: Inhibitory activity against P-selectin was determined.

Test [2] concerns the target T3, E-selectin (Homo sapiens) (UniProt P16581).
T3 sequence (whole entry): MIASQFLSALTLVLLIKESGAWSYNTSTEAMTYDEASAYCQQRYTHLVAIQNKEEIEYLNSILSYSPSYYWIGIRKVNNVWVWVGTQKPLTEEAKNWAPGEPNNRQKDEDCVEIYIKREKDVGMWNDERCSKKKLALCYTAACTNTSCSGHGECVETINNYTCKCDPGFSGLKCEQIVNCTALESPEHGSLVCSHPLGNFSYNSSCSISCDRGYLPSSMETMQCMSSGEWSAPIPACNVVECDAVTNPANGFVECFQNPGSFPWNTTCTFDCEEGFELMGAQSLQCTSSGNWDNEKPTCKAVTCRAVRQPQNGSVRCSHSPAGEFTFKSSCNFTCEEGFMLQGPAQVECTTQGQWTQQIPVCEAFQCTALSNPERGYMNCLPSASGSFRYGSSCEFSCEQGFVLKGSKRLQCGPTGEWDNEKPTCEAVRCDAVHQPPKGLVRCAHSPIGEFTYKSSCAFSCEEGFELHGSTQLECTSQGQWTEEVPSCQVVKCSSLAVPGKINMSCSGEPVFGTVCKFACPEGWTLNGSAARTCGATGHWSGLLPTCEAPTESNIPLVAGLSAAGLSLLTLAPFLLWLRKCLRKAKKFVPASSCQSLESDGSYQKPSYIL
As to the kind of experiment: Inhibitory activity against Selectin E was determined; IA=Inactive.

Test [3] addresses T4, P-selectin (Homo sapiens) (UniProt P16109).
T4 sequence (whole entry): T2 sequence (P16109 whole entry)
As to the kind of experiment: Inhibitory activity against P-selectin was determined; IA=Inactive.

One may read the IC50 as the concentration needed to halve the response being measured. A high value points to a need for much substance.

For the compound `C[C@@]12CCC[C@@](C)(C(=O)O)C1CC[C@@]13C[C@@H](O[C@H]4O[C@H](CO)[C@@H](O)[C@@H](O)[C@@H]4O)[C@@](C)(CCC12)C3` (stereo partly specified), the result in test [1] and in test [2] was inactive. The IC50 at P-selectin came to 60 µM.

`C[C@@]12CCC[C@@](C)(C(=O)O)C1CC[C@]13C[C@H](O[C@H]4O[C@H](CO)[C@@H](O)[C@@H](O)[C@@H]4O)[C@](O)(CCC12)C3` (stereo partly specified): the outcome in test [1], in test [3] and in test [2] was inactive.
